In the first assay the test system is L1210 Leukemia. The assay can be described thus: L1210 Leukemia antitumor screening. Format: in vivo, Female CDF₁ mice. The following applies: Dose 10 mg/kg ip in water on day one; ILS ≧ 25% represents activity. The protocol: (§1) Each of the compounds was evaluated in the Sarcoma 180 Ascites screen and at least some of the compounds were also evaluated in the L1210 Leukemia tumor models.
(§2) L1210 screening was conducted according to a published method. […] Female CDF₁ mice (16 - 22 g) were implanted with 1 x 10⁶ tumor cells ip on day zero. Compounds were administered in 0.5 mL water ip on day one. Groups of 6 mice were used for each dose. A control group of mice received only tumor and 0.5 mL water. A positive control group received tumor and 8 mg/kg cisplatin in 0.5 mL 0.15 M NaCl. The test was terminated after three times the mean survival time (MST) of the control group, surviving mice were counted as dying on that day. Activity was determined based on the percent increase in MST of test mice over controls (%ILS). […] The tumor line was maintained through weekly transfer of 5 x 10⁴ cells in DBA/2 mice.
In the case of `Nc1nc2c(c(=O)[nH]1)[n+]([Pt]([NH2])([NH2])[Cl])cn2C1OC(CO)C(O)C1O.O=[N+]([O-])[O-]` (stereo not drawn) [cis-[Pt(NH₃)₂(guanosine)Cl]NO₃], the “%ILS” value is -24%.

The assay is the same for the next values; noted with them: Dose 10 mg/kg ip; survivors per group of 6 mice at three times the MST of controls.
With `Nc1nc2c(c(=O)[nH]1)[n+]([Pt]([NH2])([NH2])[Cl])cn2C1OC(CO)C(O)C1O.O=[N+]([O-])[O-]` (stereo not drawn) [cis-[Pt(NH₃)₂(guanosine)Cl]NO₃], the Surv is given as 0/6.

The assay is the same for the next values; noted with them: Dose 20 mg/kg ip in water on day one; ILS ≧ 25% represents activity.
Consider `Nc1nc2c(c(=O)[nH]1)[n+]([Pt]([NH2])([NH2])[Cl])cn2C1OC(CO)C(O)C1O.O=[N+]([O-])[O-]` (stereo not drawn) [cis-[Pt(NH₃)₂(guanosine)Cl]NO₃], for which the “%ILS” value is reported as -4%.

Still in this assay, the particulars now being: Dose 20 mg/kg ip; survivors per group of 6 mice at three times the MST of controls.
For the molecule `Nc1nc2c(c(=O)[nH]1)[n+]([Pt]([NH2])([NH2])[Cl])cn2C1OC(CO)C(O)C1O.O=[N+]([O-])[O-]` (stereo not drawn) [cis-[Pt(NH₃)₂(guanosine)Cl]NO₃], the Surv was 0/6.

Staying with this assay, now noted: Dose 40 mg/kg ip in water on day one; ILS ≧ 25% represents activity.
As for `Nc1nc2c(c(=O)[nH]1)[n+]([Pt]([NH2])([NH2])[Cl])cn2C1OC(CO)C(O)C1O.O=[N+]([O-])[O-]` (stereo not drawn) [cis-[Pt(NH₃)₂(guanosine)Cl]NO₃], the “%ILS” value was -4%.

The same assay, now with this note: Dose 40 mg/kg ip; survivors per group of 6 mice at three times the MST of controls.
Regarding `Nc1nc2c(c(=O)[nH]1)[n+]([Pt]([NH2])([NH2])[Cl])cn2C1OC(CO)C(O)C1O.O=[N+]([O-])[O-]` (stereo not drawn) [cis-[Pt(NH₃)₂(guanosine)Cl]NO₃], the Surv is recorded as 0/6.

Still in this assay, the particulars now being: Dose 80 mg/kg ip in water on day one; ILS ≧ 25% represents activity.
For `Nc1nc2c(c(=O)[nH]1)[n+]([Pt]([NH2])([NH2])[Cl])cn2C1OC(CO)C(O)C1O.O=[N+]([O-])[O-]` (stereo not drawn) [cis-[Pt(NH₃)₂(guanosine)Cl]NO₃], the “%ILS” value was found to be 2%.

Still in this assay, the particulars now being: Dose 80 mg/kg ip; survivors per group of 6 mice at three times the MST of controls.
For the molecule `Nc1nc2c(c(=O)[nH]1)[n+]([Pt]([NH2])([NH2])[Cl])cn2C1OC(CO)C(O)C1O.O=[N+]([O-])[O-]` (stereo not drawn) [cis-[Pt(NH₃)₂(guanosine)Cl]NO₃], the Surv is 0/6.

Still in this assay, the particulars now being: Dose 160 mg/kg ip in water on day one; ILS ≧ 25% represents activity.
For the molecule `Nc1nc2c(c(=O)[nH]1)[n+]([Pt]([NH2])([NH2])[Cl])cn2C1OC(CO)C(O)C1O.O=[N+]([O-])[O-]` (stereo not drawn) [cis-[Pt(NH₃)₂(guanosine)Cl]NO₃], the “%ILS” value was found to be 8%.

The same assay, now with this note: Dose 160 mg/kg ip; survivors per group of 6 mice at three times the MST of controls.
With `Nc1nc2c(c(=O)[nH]1)[n+]([Pt]([NH2])([NH2])[Cl])cn2C1OC(CO)C(O)C1O.O=[N+]([O-])[O-]` (stereo not drawn) [cis-[Pt(NH₃)₂(guanosine)Cl]NO₃], the Surv is 0/6.

Still in this assay, the particulars now being: Dose 320 mg/kg ip in water on day one; ILS ≧ 25% represents activity.
Take `Nc1nc2c(c(=O)[nH]1)[n+]([Pt]([NH2])([NH2])[Cl])cn2C1OC(CO)C(O)C1O.O=[N+]([O-])[O-]` (stereo not drawn) [cis-[Pt(NH₃)₂(guanosine)Cl]NO₃]: the “%ILS” value was -26%.

Staying with this assay, now noted: Dose 320 mg/kg ip; survivors per group of 6 mice at three times the MST of controls.
Take `Nc1nc2c(c(=O)[nH]1)[n+]([Pt]([NH2])([NH2])[Cl])cn2C1OC(CO)C(O)C1O.O=[N+]([O-])[O-]` (stereo not drawn) [cis-[Pt(NH₃)₂(guanosine)Cl]NO₃]: the Surv is on record as 0/6.

Another assay has as its system Sarcoma 180 Ascites. The assay can be described thus: Sarcoma 180 Ascites (S180a) antitumor screening. Format: in vivo, Female CFW mice. The conditions noted are these: Dose 10 mg/kg ip in water on day one; ILS ≧ 50% indicates activity. The procedure: as §1, §2
Female CFW mice (18 - 25 g) were implanted with 2 x 10⁶ cells ip on day zero. Compounds were administered in 0.5 mL water ip on day one. Groups of 6 mice were used for each test dose as well as controls as defined above. The test was run for twice the MST of the control group, with survivors counted as dying on that day. An ILS of ≧ 50% indicates activity. The tumor line was maintained through weekly transfer of 4 x 10⁶ cells in CFW mice.
For the molecule `Nc1nc2c(c(=O)[nH]1)[n+]([Pt]([NH2])([NH2])[Cl])cn2C1OC(CO)C(O)C1O.O=[N+]([O-])[O-]` (stereo not drawn) [cis-[Pt(NH₃)₂(guanosine)Cl]NO₃], the “%ILS” value came to 2%.

The assay is the same for the next values; noted with them: Dose 10 mg/kg ip; survivors per group of 6 mice at twice the MST of controls.
As for `Nc1nc2c(c(=O)[nH]1)[n+]([Pt]([NH2])([NH2])[Cl])cn2C1OC(CO)C(O)C1O.O=[N+]([O-])[O-]` (stereo not drawn) [cis-[Pt(NH₃)₂(guanosine)Cl]NO₃], the Surv was 0/6.

The assay is the same for the next values; noted with them: Dose 20 mg/kg ip in water on day one; ILS ≧ 50% indicates activity.
Take `Nc1nc2c(c(=O)[nH]1)[n+]([Pt]([NH2])([NH2])[Cl])cn2C1OC(CO)C(O)C1O.O=[N+]([O-])[O-]` (stereo not drawn) [cis-[Pt(NH₃)₂(guanosine)Cl]NO₃]: the “%ILS” value amounted to 15%.

Still in this assay, the particulars now being: Dose 20 mg/kg ip; survivors per group of 6 mice at twice the MST of controls.
Consider `Nc1nc2c(c(=O)[nH]1)[n+]([Pt]([NH2])([NH2])[Cl])cn2C1OC(CO)C(O)C1O.O=[N+]([O-])[O-]` (stereo not drawn) [cis-[Pt(NH₃)₂(guanosine)Cl]NO₃], for which the Surv is recorded as 1/6.

The same assay, now with this note: Dose 40 mg/kg ip in water on day one; ILS ≧ 50% indicates activity.
As for `Nc1nc2c(c(=O)[nH]1)[n+]([Pt]([NH2])([NH2])[Cl])cn2C1OC(CO)C(O)C1O.O=[N+]([O-])[O-]` (stereo not drawn) [cis-[Pt(NH₃)₂(guanosine)Cl]NO₃], the “%ILS” value was found to be 23%.

Staying with this assay, now noted: Dose 40 mg/kg ip; survivors per group of 6 mice at twice the MST of controls.
As to `Nc1nc2c(c(=O)[nH]1)[n+]([Pt]([NH2])([NH2])[Cl])cn2C1OC(CO)C(O)C1O.O=[N+]([O-])[O-]` (stereo not drawn) [cis-[Pt(NH₃)₂(guanosine)Cl]NO₃], the Surv is reported as 0/6.

The same assay, now with this note: Dose 80 mg/kg ip in water on day one; ILS ≧ 50% indicates activity.
Consider `Nc1nc2c(c(=O)[nH]1)[n+]([Pt]([NH2])([NH2])[Cl])cn2C1OC(CO)C(O)C1O.O=[N+]([O-])[O-]` (stereo not drawn) [cis-[Pt(NH₃)₂(guanosine)Cl]NO₃], for which the “%ILS” value is on record as 16%.

Staying with this assay, now noted: Dose 80 mg/kg ip; survivors per group of 6 mice at twice the MST of controls.
Regarding `Nc1nc2c(c(=O)[nH]1)[n+]([Pt]([NH2])([NH2])[Cl])cn2C1OC(CO)C(O)C1O.O=[N+]([O-])[O-]` (stereo not drawn) [cis-[Pt(NH₃)₂(guanosine)Cl]NO₃], the Surv is recorded as 1/6.

The same assay, now with this note: Dose 160 mg/kg ip in water on day one; ILS ≧ 50% indicates activity.
On to `Nc1nc2c(c(=O)[nH]1)[n+]([Pt]([NH2])([NH2])[Cl])cn2C1OC(CO)C(O)C1O.O=[N+]([O-])[O-]` (stereo not drawn) [cis-[Pt(NH₃)₂(guanosine)Cl]NO₃], for which the “%ILS” value came out at 79%.

Staying with this assay, now noted: Dose 160 mg/kg ip; survivors per group of 6 mice at twice the MST of controls.
`Nc1nc2c(c(=O)[nH]1)[n+]([Pt]([NH2])([NH2])[Cl])cn2C1OC(CO)C(O)C1O.O=[N+]([O-])[O-]` (stereo not drawn) [cis-[Pt(NH₃)₂(guanosine)Cl]NO₃]: the Surv was 3/6.

Staying with this assay, now noted: Dose 320 mg/kg ip in water on day one; ILS ≧ 50% indicates activity.
For `Nc1nc2c(c(=O)[nH]1)[n+]([Pt]([NH2])([NH2])[Cl])cn2C1OC(CO)C(O)C1O.O=[N+]([O-])[O-]` (stereo not drawn) [cis-[Pt(NH₃)₂(guanosine)Cl]NO₃], the “%ILS” value was -45%.

Still in this assay, the particulars now being: Dose 320 mg/kg ip; survivors per group of 6 mice at twice the MST of controls.
In the case of `Nc1nc2c(c(=O)[nH]1)[n+]([Pt]([NH2])([NH2])[Cl])cn2C1OC(CO)C(O)C1O.O=[N+]([O-])[O-]` (stereo not drawn) [cis-[Pt(NH₃)₂(guanosine)Cl]NO₃], the Surv is recorded as 1/6.
